The source made the active and inactive calls. No cut-off for these calls is given here.
Columns and labels:
[1] = biological target: Plasminogen (Homo sapiens, UniProt P00747); test: Inhibition of human plasma plasmin using Biophen CS-21(66) as substrate; format: cell-free
[2] = biological target: Acetylcholinesterase (Electrophorus electricus, UniProt O42275); test: Inhibition of Electrophorus electricus AChE using acetylthiocholine iodide as substrate by 5-5'-Dithiobis(2 nitrobenzoic acid)-based assay
Sequence of Acetylcholinesterase (O42275 whole entry): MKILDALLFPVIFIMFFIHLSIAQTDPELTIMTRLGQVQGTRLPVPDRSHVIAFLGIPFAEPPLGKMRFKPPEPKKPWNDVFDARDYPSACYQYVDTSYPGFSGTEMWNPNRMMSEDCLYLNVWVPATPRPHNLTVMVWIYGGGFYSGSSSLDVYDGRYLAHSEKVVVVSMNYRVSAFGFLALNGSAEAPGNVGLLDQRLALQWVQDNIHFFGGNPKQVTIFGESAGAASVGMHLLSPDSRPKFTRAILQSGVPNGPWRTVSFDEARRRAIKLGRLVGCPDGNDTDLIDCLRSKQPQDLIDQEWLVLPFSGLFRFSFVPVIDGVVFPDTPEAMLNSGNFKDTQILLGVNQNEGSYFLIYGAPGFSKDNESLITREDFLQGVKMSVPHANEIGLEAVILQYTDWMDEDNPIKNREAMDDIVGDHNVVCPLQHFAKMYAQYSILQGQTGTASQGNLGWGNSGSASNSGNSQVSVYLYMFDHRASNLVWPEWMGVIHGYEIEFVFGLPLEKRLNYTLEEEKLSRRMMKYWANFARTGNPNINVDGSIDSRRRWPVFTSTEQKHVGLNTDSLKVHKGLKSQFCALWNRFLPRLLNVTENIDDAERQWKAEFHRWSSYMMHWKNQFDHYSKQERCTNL

[3] = biological target: T1, Kallikrein-4 (Homo sapiens, UniProt Q9Y5K2); test: Inhibition of human recombinant KLK4 expressed in Escherichia coli using Bachem I-1120 as substrate preincubated for 15 mins followed by substrate addition by microplate reader analysis
T1 sequence (Q9Y5K2 whole entry): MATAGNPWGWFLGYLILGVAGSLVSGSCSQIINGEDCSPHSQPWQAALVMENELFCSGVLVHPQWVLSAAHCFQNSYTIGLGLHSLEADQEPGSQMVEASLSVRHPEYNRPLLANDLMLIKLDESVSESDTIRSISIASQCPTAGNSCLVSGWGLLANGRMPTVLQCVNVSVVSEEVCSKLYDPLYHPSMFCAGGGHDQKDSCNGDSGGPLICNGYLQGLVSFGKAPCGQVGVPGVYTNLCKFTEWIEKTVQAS

[4] = biological target: Coagulation factor X (Homo sapiens, UniProt P00742); test: Inhibition of factor 10a (unknown origin) using Biophen CS-11(32) as substrate
Sequence of Coagulation factor X (P00742 41-179 limits assumed): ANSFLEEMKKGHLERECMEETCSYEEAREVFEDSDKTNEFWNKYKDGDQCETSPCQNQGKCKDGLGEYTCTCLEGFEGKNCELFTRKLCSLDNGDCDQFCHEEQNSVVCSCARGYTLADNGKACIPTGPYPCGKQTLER
Sequence of Coagulation factor X (P00742 235-488 limits assumed): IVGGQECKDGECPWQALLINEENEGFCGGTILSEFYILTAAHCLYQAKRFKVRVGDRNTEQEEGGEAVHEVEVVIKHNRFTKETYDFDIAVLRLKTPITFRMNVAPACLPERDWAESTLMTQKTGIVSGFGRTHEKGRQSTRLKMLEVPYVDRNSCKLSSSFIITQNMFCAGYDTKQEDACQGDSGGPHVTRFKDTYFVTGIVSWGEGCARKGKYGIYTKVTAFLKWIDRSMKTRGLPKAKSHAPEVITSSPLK

[5] = biological target: T2, Kallikrein-8 (Homo sapiens, UniProt O60259); test: Inhibition of human recombinant KLK8 expressed in Escherichia coli using Bachem I-1120 as substrate preincubated for 15 mins followed by substrate addition by microplate reader analysis
T2 sequence (O60259 whole entry): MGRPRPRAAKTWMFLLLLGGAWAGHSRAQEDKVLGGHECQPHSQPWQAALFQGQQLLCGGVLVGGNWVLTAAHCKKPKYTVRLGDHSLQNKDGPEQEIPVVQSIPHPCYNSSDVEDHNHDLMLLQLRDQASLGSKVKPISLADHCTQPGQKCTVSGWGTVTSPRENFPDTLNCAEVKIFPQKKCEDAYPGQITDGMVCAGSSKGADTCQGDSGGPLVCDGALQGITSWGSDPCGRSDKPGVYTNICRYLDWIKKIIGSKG

[6] = organism: Homo sapiens; test: Selectivity ratio of IC50 for recombinant tPA (unknown origin) to IC50 for human recombinant KLK4
[7] = biological target: Urokinase-type plasminogen activator (Homo sapiens, UniProt P00749); test: Inhibition of recombinant uPA (unknown origin) using Biophen CS-61(44) as substrate
[8] = biological target: T3, Kallikrein-2 (Homo sapiens) (UniProt P20151); test: Reversible inhibition of human recombinant KLK2 expressed in Escherichia coli using H-Pro-Phe-Arg-AMC as fluorogenic substrate at 100 times IC50 preincubated for 15 mins followed by 100 fold dilution measured for 1 hr
T3 sequence (whole entry): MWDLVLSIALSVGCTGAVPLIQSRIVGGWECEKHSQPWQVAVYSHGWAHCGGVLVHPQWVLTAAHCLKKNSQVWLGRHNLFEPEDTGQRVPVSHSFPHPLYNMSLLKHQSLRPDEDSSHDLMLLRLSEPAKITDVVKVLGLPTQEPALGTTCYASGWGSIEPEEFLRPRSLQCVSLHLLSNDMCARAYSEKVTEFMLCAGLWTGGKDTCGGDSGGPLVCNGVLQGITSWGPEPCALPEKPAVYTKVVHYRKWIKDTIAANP

[9] = Selectivity ratio of IC50 for Electrophorus electricus AChE to IC50 for human recombinant KLK4
[10] = biological target: T4, Kallikrein-2 (Homo sapiens, UniProt P20151); test: Inhibition of human recombinant KLK2 expressed in Escherichia coli using Bachem I-1295 as substrate preincubated for 15 mins followed by substrate addition by microplate reader analysis
T4 sequence (P20151 whole entry): T3 sequence (whole entry)

[11] = biological target: T1, Kallikrein-4; test: Reversible inhibition of human recombinant KLK4 expressed in Escherichia coli using Bachem I-1120 as fluorogenic substrate at 100 times IC50 preincubated for 15 mins followed by 100 fold dilution measured for 1 hr by microplate reader analysis
[12] = biological target: T5, Kallikrein-1 (Homo sapiens, UniProt P06870); test: Reversible inhibition of human recombinant KLK1 expressed in Escherichia coli using H-Pro-Phe-Arg-AMC as fluorogenic substrate at 100 times IC50 preincubated for 15 mins followed by 100 fold dilution measured for 1 hr
Target sequence in this assay (P06870 25-262 limits assumed): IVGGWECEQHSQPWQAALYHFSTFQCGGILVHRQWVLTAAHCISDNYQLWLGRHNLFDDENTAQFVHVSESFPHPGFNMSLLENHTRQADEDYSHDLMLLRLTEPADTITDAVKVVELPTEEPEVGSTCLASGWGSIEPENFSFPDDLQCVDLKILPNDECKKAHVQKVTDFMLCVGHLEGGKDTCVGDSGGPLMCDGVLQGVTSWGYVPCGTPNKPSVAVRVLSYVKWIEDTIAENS

[13] = organism: Homo sapiens; test: Selectivity ratio of IC50 for human plasma thrombin to IC50 for human recombinant KLK4
[14] = biological target: T5, Kallikrein-1; test: Inhibition of human recombinant KLK1 expressed in Escherichia coli using Bachem I-1295 as substrate preincubated for 15 mins followed by substrate addition by microplate reader analysis
Target sequence in this assay (P06870 whole entry): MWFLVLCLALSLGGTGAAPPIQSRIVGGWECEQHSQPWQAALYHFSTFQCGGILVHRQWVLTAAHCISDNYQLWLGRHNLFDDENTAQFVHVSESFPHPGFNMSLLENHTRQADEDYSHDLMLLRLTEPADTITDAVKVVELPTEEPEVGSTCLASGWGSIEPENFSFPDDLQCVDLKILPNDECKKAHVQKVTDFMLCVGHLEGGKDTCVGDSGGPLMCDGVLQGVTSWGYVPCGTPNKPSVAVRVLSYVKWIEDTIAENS

[15] = organism: Homo sapiens; test: Selectivity ratio of IC50 for human recombinant KLK1 to IC50 for human recombinant KLK4
[16] = organism: Homo sapiens; test: Selectivity ratio of IC50 for recombinant uPA (unknown origin) to IC50 for human recombinant KLK4
[17] = biological target: T6, Prothrombin (Homo sapiens, UniProt P00734); test: Inhibition of human plasma thrombin using Biophen CS-21(66) as substrate preincubated for 15 mins followed by substrate addition by microplate reader analysis; format: cell-free
[18] = biological target: Tissue-type plasminogen activator (Homo sapiens, UniProt P00750); test: Inhibition of recombinant tPA (unknown origin) using Biophen CS-05(88) as substrate
Sequence of Tissue-type plasminogen activator (P00750 whole entry): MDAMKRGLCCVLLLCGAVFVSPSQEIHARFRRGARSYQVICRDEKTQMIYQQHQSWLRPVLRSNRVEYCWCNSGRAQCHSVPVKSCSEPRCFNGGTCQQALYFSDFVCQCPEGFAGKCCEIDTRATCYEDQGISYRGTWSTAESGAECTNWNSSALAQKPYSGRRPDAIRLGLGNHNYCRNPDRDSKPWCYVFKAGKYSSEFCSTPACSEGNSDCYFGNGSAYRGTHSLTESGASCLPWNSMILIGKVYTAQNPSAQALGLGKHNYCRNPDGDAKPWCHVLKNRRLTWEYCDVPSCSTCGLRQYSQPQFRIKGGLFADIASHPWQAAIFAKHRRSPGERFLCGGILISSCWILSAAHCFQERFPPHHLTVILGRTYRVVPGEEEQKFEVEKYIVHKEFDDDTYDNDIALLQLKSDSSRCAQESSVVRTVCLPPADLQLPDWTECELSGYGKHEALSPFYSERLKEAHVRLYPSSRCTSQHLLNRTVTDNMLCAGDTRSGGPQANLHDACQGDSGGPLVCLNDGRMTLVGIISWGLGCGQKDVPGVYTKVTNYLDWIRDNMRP

[19] = organism: Homo sapiens; test: Selectivity ratio of IC50 for human recombinant KLK2 to IC50 for human recombinant KLK4
[20] = organism: Homo sapiens; test: Selectivity ratio of IC50 for factor 10a (unknown origin) to IC50 for human recombinant KLK4
[21] = organism: Homo sapiens; test: Selectivity ratio of IC50 for human plasma plasmin to IC50 for human recombinant KLK4
[22] = organism: Homo sapiens; test: Selectivity ratio of IC50 for human recombinant KLK8 to IC50 for human recombinant KLK4
[23] = biological target: T6, Prothrombin; test: Reversible inhibition of human thrombin using Biophen CS-21(66) as substrate at 100 times IC50 preincubated for 15 mins followed by 100 fold dilution measured for 1 hr
[24] = biological target: T7, Kallikrein-8 (Homo sapiens) (UniProt O60259); test: Irreversible inhibition of human recombinant KLK8 expressed in Escherichia coli using Boc-Val-Pro-Arg-AMC as fluorogenic substrate at 100 times IC50 preincubated for 15 mins followed by 100 fold dilution measured for 1 hr
T7 sequence (whole entry): T2 sequence (O60259 whole entry)

Sequence of Plasminogen (P00747 97-580 limits assumed): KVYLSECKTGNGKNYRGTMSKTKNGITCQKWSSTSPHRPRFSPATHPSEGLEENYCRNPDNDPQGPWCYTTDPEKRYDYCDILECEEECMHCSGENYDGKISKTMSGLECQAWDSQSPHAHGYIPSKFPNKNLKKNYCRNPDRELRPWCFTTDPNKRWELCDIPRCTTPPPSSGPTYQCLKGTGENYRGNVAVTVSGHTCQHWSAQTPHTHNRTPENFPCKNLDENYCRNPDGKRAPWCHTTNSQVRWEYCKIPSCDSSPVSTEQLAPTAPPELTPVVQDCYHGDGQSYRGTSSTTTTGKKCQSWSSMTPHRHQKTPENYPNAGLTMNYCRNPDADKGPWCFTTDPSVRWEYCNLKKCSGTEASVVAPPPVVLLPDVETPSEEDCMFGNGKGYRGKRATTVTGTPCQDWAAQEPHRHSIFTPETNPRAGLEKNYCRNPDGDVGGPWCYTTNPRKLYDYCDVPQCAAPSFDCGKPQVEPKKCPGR
Sequence of Plasminogen (P00747 581-810 limits assumed): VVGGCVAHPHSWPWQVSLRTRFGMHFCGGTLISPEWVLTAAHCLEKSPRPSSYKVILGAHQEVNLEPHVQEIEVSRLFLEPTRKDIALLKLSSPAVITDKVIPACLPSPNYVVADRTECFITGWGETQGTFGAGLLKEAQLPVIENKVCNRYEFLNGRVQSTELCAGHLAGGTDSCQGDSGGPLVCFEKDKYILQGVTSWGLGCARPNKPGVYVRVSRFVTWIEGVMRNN

Compound	IC50 [1] [µM]	IC50 [2] [µM]	IC50 [3] [nM]	IC50 [4] [µM]	IC50 [5] [nM]	IC50 [7] [µM]	inhibition [8]	IC50 [10] [nM]	reversible inhibition (activity call) [11]	IC50 [14] [nM]	IC50 [17] [µM]	IC50 [18] [µM]	inhibition [23]	also measured
N=C(N)Nc1ccc(C(NC(=O)OCc2ccccc2)P(=O)(Oc2ccccc2)Oc2ccccc2)cc1 (stereo not drawn)	4.9	> 10	3.4	3.6	1160	2.7	Active	220	Active	240	250	250		Ratio IC50 [6]: > 300; Ratio IC50 [9]: > 300; inhibition [12]: Active; Ratio IC50 [13]: > 300; Ratio IC50 [15]: 70; Ratio IC50 [16]: > 300; Ratio IC50 [19]: 70; Ratio IC50 [20]: > 300; Ratio IC50 [21]: > 300; Ratio IC50 [22]: > 300
N=C(N)c1ccc(CCC(NC(=O)OCc2ccccc2)P(=O)(Oc2ccccc2)Oc2ccccc2)cc1 (stereo not drawn)		> 20	15		5000		Active	720	Active	1370				
N=C(N)NCCCC(NC(=O)OCc1ccccc1)P(=O)(Oc1ccccc1)Oc1ccccc1 (stereo not drawn)		> 10	40	> 10	125			> 2500	Active	820	0.8		Active	
N=C(N)c1ccc(C(NC(=O)OCc2ccccc2)P(=O)(Oc2ccccc2)Oc2ccccc2)cc1 (stereo not drawn)	> 2.5	> 10	41	> 2.5	790			> 2500	Active	> 2500	0.196	> 2.5	Active	inhibition [24]: Active
Nc1ccc(CC(NC(=O)OCc2ccccc2)P(=O)(Oc2ccccc2)Oc2ccccc2)cc1 (stereo not drawn)			> 10000	> 10	> 10000	19.8		> 10000		> 10000	62	32		
Nc1ccc(C(NC(=O)OCc2ccccc2)P(=O)(Oc2ccccc2)Oc2ccccc2)cc1 (stereo not drawn)	> 10	> 10	> 10000	> 10	> 10000	> 10		> 2500		> 10000	> 10	> 10		

— ChEMBL document CHEMBL3769401, “The first potent diphenyl phosphonate KLK4 inhibitors with unexpected binding kinetics” (Medchemcomm, 2015)
